Measurements reported in patent publication US5298494A, “Monosaccharides having anti-proliferation and anti-inflammatory activity, compositions and uses thereof” (Greenwich Pharmaceuticals Incorporated, priority 1993, dated 1994).

Experiments:
[1] = system: T lymphocytes (normal mouse spleen cells) stimulated with ConA; experiment: Mouse Spleen Cell ConA Blastogenesis Assay; format: cell-based, mouse (C57Bl/6); details: control compound, concentration not given
[2] = system: BUD-8 human skin fibroblasts; experiment: Fibroblast assay: proliferation of BUD-8 skin cell fibroblasts; format: cell-based
Description: The human skin cell fibroblast line, BUD-8 was obtained prior to each assay from the American Type Culture Collection. This is a fibroblast-like cell line which was originally derived from the normal skin of a person.
BUD-8 cell cultures were expanded for use in 25 cm^2 flasks at 37° C. in an atmosphere of 5% CO2 in air. At approximately 4-5 five day intervals, or when confluence was reached, the cells were passaged. This was accomplished by detaching the cells with a Teflon scraper, washing and reseeding the cells at a lower density into fresh tissue culture flasks.
(§1) The effect of the compound of the present invention on the proliferative capacity of human BUD-8 skin fibroblasts was measured with the use of a ^3 H-thymidine incorporation assay using culture conditions which were similar to those used for a Con-A blastogenesis assay, described previously. Cultured skin cells were detached from the surface of tissue culture flasks mechanically with a Teflon scraper. The cells were washed, resuspended in incubation medium and the viabilities were determined. These cells were then plated in triplicate at a density of 2×10^3 cells/0.1 ml/microtiter well for the proliferation assay and a density of 1×10^4 cells/0.1 ml/microtiter well for the assays to quantitate PGE2 and LTB4. To these cells was added incubation medium containing indomethacin to inhibit prostaglandin production, or nordihydroguaiaretic acid (NDGA) to inhibit leukotriene production (positive controls).
After 3 days of culture, 1 uCi ^3 H-thymidine was added in a 50 ul volume to each culture well of the microtiter plates. Eighteen hours later, each of the BUD-8 cultures was examined morphologically for evidence of compound-induced toxicity such as cell rounding or granularity. The thymidine-pulsed cells were then precipitated and the amount of ^3 H-thymidine incorporated was counted in a liquid scintillation counter.
The concentrations of the compounds of the invention which were used in these assays were:
The incubation medium used for culturing the BUD-8 cells was RPMI-1640 medium containing 10% fetal bovine serum, 100 ug/ml streptomycin, 100 U/ml penicillin, 0.2M Hepes buffer solution, 5×10^-5 M 2-mercaptoethanol and 2 mM glutamine.

[3] = system: LTB4 production by BUD-8 skin cell fibroblasts; experiment: LTB4 production by BUD-8 skin cell fibroblasts (radioimmunoassay); format: cell-based, human
Description: as §1
(§2) After 18 hours of culture, samples of the BUD-8 skin cell supernatants were collected from one set of microtiter plates and frozen until assayed for PGE2 or for LTB4 content using the radioimmunoassays described below.
Levels of LTB4 in aliquots of BUD-8 skin cell cultures supernatants were quantitated by radioimmunoassay (New England Nuclear). Briefly, into each polyproplyene tube were mixed 0.1 ml anti-LTB4, 0.1. ml ^3 H-LTB4 and 0.1 ml LTB4 standard or LTB4 containing sample. The BUD-8 skin cell culture supernatants were used directly in the radioimmunoassay. Tubes were refrigerated overnight. A charcoal solution (0.5 ml of 0.5% charcoal Norit A) was added and each tube was centrifuged. The radioactivity in the supernatant was then counted in a liquid scintillation counter.

[4] = system: PGE2 production by BUD-8 skin cell fibroblasts; experiment: PGE2 production by BUD-8 skin cell fibroblasts (radioimmunoassay); format: cell-based, human
Description: as §1, §2
A radioinmunoassay (New England Nuclear) was used to quantitate PGE2 levels in BUD-8 skin cell culture supernatants. Briefly, into each polypropylene tube were mixed 0.1 ml anti-PGE2, 0.1 ml ^125 1-PGE2 and 0.1 ml PGE2 standard or PGE2 containing sample. The BUD-8 skin culture supernatants were diluted 1:2 prior to addition to the radioimmunoassay. Tubes were refrigerated overnight. A polyethylene glycol solution (16%, 6,000 m.w.) was then added to precipitate immune complexes and the radioactivity in the precipitate was counted in a gamma counter.

[5] = system: GS-109-V-20 human skin cell fibroblasts; experiment: Fibroblast assay: proliferation of GS-109-V-20 skin cell fibroblasts; format: cell-based
Description: The effect of methyl 3-O-3'-(N',N'-dimethylamino-n-propyl)-6-deoxy-D-glucopyranoside on the proliferative capacity of human GS-109-V-20 skin fibroblasts was measured with the use of ^3 H-thymidine incorporation assay. Cultured skin cells were detached from the surface of tissue culture flasks mechanically with a Teflon scraper. The cells were washed, resuspended in incubation medium and the viabilities determined. These cells were then plated in triplicate at a density of 1×10^3 cells/0.1 ml/microtiter well. To these cells was added 0.1 ml incubation medium containing the methyl 3-O-3'-(N',N'-dimethylamino-n-propyl)-6-deoxy-D-glucopyranoside compound.
After 3 days of culture, 1#uCi ^3 H-thymidine was added in 50 ul volume to each culture well of the microtiter plates. Eighteen hours later, each of the GS-109-V-20 cultures was examined morphologically for evidence of drug-induced toxicity such as cell rounding or granularity. The ^3 H-thymidine-pulsed cells were then precipitated and the amount of ^3 H-thymidine incorporation was counted on a liquid scintillation counter.
Methyl 3-O-3'-(N',N'-dimethylamino-n-propyl)-6-deoxy-D-glucopyranoside was suspended directly into the medium by extensive sonication, without being filter-sterilized. A range of doses of this compound was used to measure effects of this compound upon GS-109-V-20 cell proliferation. The following doses were used:
The human skin cell fibroblast line, GS-109-V-20, was obtained from the American Type Culture-Collection. […] These cells were selected for use because they are considered to exist in an initiated state, as opposed to being normal or transformed, and have a more extensive population doubling time and survival period in culture than do normal fibroblasts. In this regard, they would more closely reflect the biological characteristics of psoriatic or rheumatoid synovial fibroblasts which also proliferate more extensively than do normal fibroblasts, but not as extensively as immortalized transformed tumor cells.
The number of GS-109-V-20 cells was expanded for use in the described assays by culture in 25 cm^2 flasks at 37° C. in an atmosphere of 5% CO2 in air. At approximately 4-5 day intervals, or when confluence was reached, the cells were passaged. This was accomplished by detaching the cells by trypsinization, washing and reseeding the cells at a lower density into fresh tissue culture flasks.

[6] = concentration not given, 1080 min

COc1ccc2c(c1)c(CC(=O)O)c(C)n2C(=O)c1ccc(Cl)cc1 [Indo., indomethacin, reference compound]
% effect on ConA blastogenic response (positive control) ([1]; ConA 1 ug/ml): +4%
Blastogenic response of normal spleen cells to Con-A (positive control) ([1]; ConA 1 ug/ml): 57.7 ± 8.7 × 10^-3 cpm
% effect on ConA blastogenic response (positive control) ([1]; ConA 4 ug/ml): -17%
Blastogenic response of normal spleen cells to Con-A (positive control) ([1]; ConA 4 ug/ml): 70.0 ± 5.6 × 10^-3 cpm
% effect on BUD-8 proliferation (positive control) ([2]; concentration not given): -17%
^3 H-Thymidine uptake by BUD-8 skin cells (positive control) ([2]; concentration not given): 6,043 ± 184 cpm
LTB4 in supernatant (positive control) ([3]; concentration not given): 39.4 ± 5.3 pg LTB4 100 ul supernatant
calculated LTB4 production/10^5 BUD-8 cells (positive control) ([3]; concentration not given): 1,771 pg per 10^5 cells
% effect on LTB4 production (positive control) [3, 6]: +10%
PGE2 in supernatant (positive control) ([4]; concentration not given): 5.3 ± 0.5 pg PGE2 /50 ul supernatant
calculated PGE2 production/10^5 BUD-8 cells (positive control) ([4]; concentration not given): 187 pg per 10^5 cells
% effect on PGE2 production (positive control) [4, 6]: -66%
^3 H-Thymidine uptake by GS-109-V-20 skin cells (control compound) ([5]; 2 × 10^-6 M Indomethacin, 2 × 10^-6 N NDGA): 3,317 ± 351 cpm
inhibition at 2 µM ([5]; Homo sapiens, Fibroblast, read-out: % effect on GS-109-V-20 proliferation (control compound)): 14%

CC1(C)OC2OC3C(O)COC3(O)C2O1 [IV, (3S) 1,2-O-isopropylidene-α-D-ribo-hexos-3-ulose-1,4:3,6-difuranose]
^3 H-Thymidine uptake by BUD-8 skin cells ([2]; 1 ug/ml): 3,607 ± 87 cpm
^3 H-Thymidine uptake by BUD-8 skin cells ([2]; 10 ug/ml): 4,077 ± 374 cpm
^3 H-Thymidine uptake by BUD-8 skin cells ([2]; 25 ug/ml): 3,791 ± 451 cpm
^3 H-Thymidine uptake by BUD-8 skin cells ([2]; 100 ug/ml): 4,032 ± 3 cpm
^3 H-Thymidine uptake by BUD-8 skin cells ([2]; 300 ug/ml): 2,882 ± 387 cpm
^3 H-Thymidine uptake by BUD-8 skin cells ([2]; 750 ug/ml): 2,658 ± 247 cpm
inhibition at 1 µg/mL ([2]; Homo sapiens, Skin fibroblast, 1 ug/ml, read-out: % Effect on BUD-8 proliferation): 51%
inhibition at 10 µg/mL ([2]; Homo sapiens, Skin fibroblast, 10 ug/ml, read-out: % Effect on BUD-8 proliferation): 44%
inhibition at 25 µg/mL ([2]; Homo sapiens, Skin fibroblast, 25 ug/ml, read-out: % Effect on BUD-8 proliferation): 48%
inhibition at 100 µg/mL ([2]; Homo sapiens, Skin fibroblast, 100 ug/ml, read-out: % Effect on BUD-8 proliferation): 45%
inhibition at 300 µg/mL ([2]; Homo sapiens, Skin fibroblast, 300 ug/ml, read-out: % Effect on BUD-8 proliferation): 61%
inhibition at 750 µg/mL ([2]; Homo sapiens, Skin fibroblast, 750 ug/ml, read-out: % Effect on BUD-8 proliferation): 64%
effect on LTB4 production in words [3]: significantly decrease of levels of both pro-inflammatory mediators are seen at several non-toxic doses
LTB4 in supernatant (Table XXI) ([3]; 1 ug/ml): 36.4 ± 5.2 pg LTB4 100 ul supernatant
calculated LTB4 produced/10^5 BUD-8 cells ([3]; 1 ug/ml): 1,621 pg per 10^5 cells
LTB4 in supernatant (Table XXI) ([3]; 10 ug/ml): 19.9 ± 3.8 pg LTB4 100 ul supernatant
LTB4 in supernatant (Table XXI) ([3]; 25 ug/ml): 17.7 ± 3.8 pg LTB4 100 ul supernatant
calculated LTB4 produced/10^5 BUD-8 cells ([3]; 25 ug/ml): 683 pg per 10^5 cells
LTB4 in supernatant (Table XXI) ([3]; 100 ug/ml): 17.3 ± 0.9 pg LTB4 100 ul supernatant
calculated LTB4 produced/10^5 BUD-8 cells ([3]; 100 ug/ml): 665 pg per 10^5 cells
LTB4 in supernatant (Table XXI) ([3]; 300 ug/ml): 25.7 ± 5.0 pg LTB4 100 ul supernatant
calculated LTB4 produced/10^5 BUD-8 cells ([3]; 300 ug/ml): 1,083 pg per 10^5 cells
LTB4 in supernatant (Table XXI) ([3]; 750 ug/ml): 23.5 ± 0.2 pg LTB4 100 ul supernatant
calculated LTB4 produced/10^5 BUD-8 cells ([3]; 750 ug/ml): 973 pg per 10^5 cells
inhibition at 1 µg/mL ([3]; Homo sapiens, Fibroblast, 18 h, 1 ug/ml, read-out: % Effect on LTB4 production): -2%
inhibition at 10 µg/mL ([3]; Homo sapiens, Fibroblast, 18 h, 10 ug/ml, read-out: % Effect on LTB4 production): 45%
inhibition at 25 µg/mL ([3]; Homo sapiens, Fibroblast, 18 h, 25 ug/ml, read-out: % Effect on LTB4 production): 51%
inhibition at 100 µg/mL ([3]; Homo sapiens, Fibroblast, 18 h, 100 ug/ml, read-out: % Effect on LTB4 production): 52%
inhibition at 300 µg/mL ([3]; Homo sapiens, Fibroblast, 18 h, 300 ug/ml, read-out: % Effect on LTB4 production): 28%
inhibition at 750 µg/mL ([3]; Homo sapiens, Fibroblast, 18 h, 750 ug/ml, read-out: % Effect on LTB4 production): 35%
effect on PGE2 production in words [4]: significantly decrease of levels of both pro-inflammatory mediators are seen at several non-toxic doses
PGE2 in supernatant ([4]; 1 ug/ml): 7.1 ± 1.0 pg PGE2 /50 ul supernatant
calculated PGE2 produced/10^5 BUD-8 cells ([4]; 1 ug/ml): 336 pg per 10^5 cells
PGE2 in supernatant ([4]; 10 ug/ml): 7.5 ± 0.9 pg PGE2 /50 ul supernatant
calculated PGE2 produced/10^5 BUD-8 cells ([4]; 25 ug/ml): 366 pg per 10^5 cells
PGE2 in supernatant ([4]; 100 ug/ml): 13.6 ± 4.4 pg PGE2 /50 ul supernatant
calculated PGE2 produced/10^5 BUD-8 cells ([4]; 100 ug/ml): 850 pg per 10^5 cells
PGE2 in supernatant ([4]; 300 ug/ml): 23.7 ± 1.5 pg PGE2 /50 ul supernatant
calculated PGE2 produced/10^5 BUD-8 cells ([4]; 300 ug/ml): 1654 pg per 10^5 cells
PGE2 in supernatant ([4]; 750 ug/ml): 4.0 ± 0.5 pg PGE2 /50 ul supernatant
calculated PGE2 produced/10^5 BUD-8 cells ([4]; 750 ug/ml): 82 pg per 10^5 cells
inhibition at 1 µg/mL ([4]; Homo sapiens, Fibroblast, 18 h, 1 ug/ml, read-out: % Effect on PGE2 production): 51%
inhibition at 10 µg/mL ([4]; Homo sapiens, Fibroblast, 18 h, 10 ug/ml, read-out: % Effect on PGE2 production): 52%
inhibition at 25 µg/mL ([4]; Homo sapiens, Fibroblast, 18 h, 25 ug/ml, read-out: % Effect on PGE2 production): 52%
inhibition at 100 µg/mL ([4]; Homo sapiens, Fibroblast, 18 h, 100 ug/ml, read-out: % Effect on PGE2 production): 59%
inhibition at 300 µg/mL ([4]; Homo sapiens, Fibroblast, 18 h, 300 ug/ml, read-out: % Effect on PGE2 production): 67%
inhibition at 750 µg/mL ([4]; Homo sapiens, Fibroblast, 18 h, 750 ug/ml, read-out: % Effect on PGE2 production): 65%
